Measured values reported in patent US20250282820A1, “PEPTIDE COMPLEX HAVING TRKB BINDING ACTIVITY” (PEPTIDREAM INC, priority 2022, published 2025).
*1 amine or outer side, *2 acyl side, *3 side chain or, on linkers, in order; H or OH if unused. Where a SMILES comes first, the peptide text is derived from it. Bridges are numbered along the chain shown (N, C = ends). Roman numbers before positions name the chains, in order. [ ]: non-standard residue; d: D form. CO(CH2CH2O)13CH2CH2CO = O=C(CCOCCOCCOCCOCCOCCOCCOCCOCCOCCOCCOCCOCCOCCC(=O)[*:2])[*:1]; 3Pal = N[C@@H](Cc1cccnc1)C(=O)O

What was measured:
[1] = biological target: T1, Recombinant Human TrkA Fc Chimera Protein (Homo sapiens, UniProt P04629); test: Surface plasmon resonance (SPR), Biacore T200, single cycle kinetics; type: binding; conditions: FIG. 4
T1 construct: purchased R&D Systems
T1 sequence (P04629 with tags, fused parts or gaps limits assumed): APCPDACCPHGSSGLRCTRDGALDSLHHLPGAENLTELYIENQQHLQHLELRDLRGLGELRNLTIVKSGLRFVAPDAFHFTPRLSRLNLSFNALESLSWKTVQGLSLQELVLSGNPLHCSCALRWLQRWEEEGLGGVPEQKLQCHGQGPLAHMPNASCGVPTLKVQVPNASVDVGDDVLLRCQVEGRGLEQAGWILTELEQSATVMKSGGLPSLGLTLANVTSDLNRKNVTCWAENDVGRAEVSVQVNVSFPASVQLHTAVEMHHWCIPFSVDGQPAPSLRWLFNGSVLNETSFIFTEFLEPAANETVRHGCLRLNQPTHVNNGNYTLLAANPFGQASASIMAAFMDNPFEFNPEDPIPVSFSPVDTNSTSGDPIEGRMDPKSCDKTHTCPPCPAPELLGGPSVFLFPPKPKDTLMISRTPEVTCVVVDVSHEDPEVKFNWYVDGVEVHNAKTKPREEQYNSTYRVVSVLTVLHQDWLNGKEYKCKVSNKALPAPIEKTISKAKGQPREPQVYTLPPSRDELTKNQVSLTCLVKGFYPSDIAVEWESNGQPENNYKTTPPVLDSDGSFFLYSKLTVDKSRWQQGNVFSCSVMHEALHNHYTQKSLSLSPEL
Procedure: (§1) A CM3 sensor chip (Cytiva) was inserted into a Biacore T200 (Cytiva). Three priming runs were performed using running buffer: HBS-EP+ (Cytiva). The system was then equilibrated at a flow rate of 30 μL/min. After mixing in 50 μL each of a 60 mM EDC solution (Cytiva) and 650 mM NHS solution (Cytiva), the reaction was performed at a flow rate of 10 μL/min for 420 seconds. Then, 135 μL of a 30 ng/μL anti-human IgG (Fc) antibody (Cytiva) solution was prepared by dilution with a 10 mM acetic acid solution (pH 5.0), and the anti-human IgG (Fc) antibody was immobilized on the CM3 sensor chip by reacting it at a flow rate of 10 μL/min for 360 seconds. After immobilization, capping was performed by reacting it with a 1.0M ethanolamine solution (Cytiva) at a flow rate of 10 μL/min for 420 seconds. Each 200 nM Recombinant Human TrkA Fc Chimera Protein, Recombinant Human TrkB Fc Chimera Protein, Recombinant Human TrkC Fc Chimera Protein (R&D Systems) solution was reacted with the immobilized antibody at a flow rate of 10 μL/min for 60 seconds. A liquid prepared by dissolving each peptide at 10 mM in DMSO solution was diluted with running buffer to prepare a peptide-dissolved solution at a final concentration of 10 μM. Subsequently, 50 nM, 25 nM, 12.5 nM, 5 nM, and 2.5 nM peptide solutions were prepared. Using the samples described above, the kinetics of peptide against TrkA, TrkB, and TrkC were obtained by SPR measurements. After reacting a peptide with TrkA, TrkB, and TrkC, regeneration was performed using a reaction with a 3M MgCl solution at 10 μL/min for 180 seconds.
(§2) The kinetic evaluation model was Single Cycle Kinetics, and curve fitting was performed using Biacore T200 Evaluation Software Version 3.0 (Cytiva). The binding of peptides to TrkA, TrkB, and TrkC was evaluated by performing least-squares curve fitting on the obtained sensorgrams and calculating their Kd values (dissociation constants).

[2] = biological target: T2, Recombinant Human TrkC Fc Chimera Protein (Homo sapiens, UniProt Q16288); test: as above; type: binding; conditions: FIG. 4
T2 construct: purchased R&D Systems
T2 sequence (Q16288 with tags, fused parts or gaps limits assumed): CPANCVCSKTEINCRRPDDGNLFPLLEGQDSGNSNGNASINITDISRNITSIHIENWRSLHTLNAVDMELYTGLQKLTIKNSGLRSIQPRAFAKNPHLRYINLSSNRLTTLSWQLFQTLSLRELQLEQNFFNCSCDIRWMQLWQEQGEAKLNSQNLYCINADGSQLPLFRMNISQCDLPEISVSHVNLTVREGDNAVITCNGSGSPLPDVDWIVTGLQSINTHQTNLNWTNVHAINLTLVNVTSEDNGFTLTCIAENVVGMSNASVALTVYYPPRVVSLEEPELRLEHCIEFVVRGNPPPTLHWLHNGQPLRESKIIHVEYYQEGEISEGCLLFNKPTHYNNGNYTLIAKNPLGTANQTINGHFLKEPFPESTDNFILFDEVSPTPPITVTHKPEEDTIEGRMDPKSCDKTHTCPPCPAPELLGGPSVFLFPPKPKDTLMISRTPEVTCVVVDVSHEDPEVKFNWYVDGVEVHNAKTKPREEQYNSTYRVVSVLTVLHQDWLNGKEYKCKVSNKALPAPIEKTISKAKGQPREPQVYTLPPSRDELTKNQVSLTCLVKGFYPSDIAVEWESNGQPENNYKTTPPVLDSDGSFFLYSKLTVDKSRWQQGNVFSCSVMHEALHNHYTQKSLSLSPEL
Procedure: as §1, §2

[3] = biological target: T3, TrkB (CellSensor TrkB-NFAT-bla CHO-K1 Cell) (Homo sapiens, UniProt Q16620); test: NFAT transcriptional reporter assay for TrkB agonist activity; type: cell-based; conditions: class = peptide concentration giving 50% or more activity; BDNF maximum signal = 100%, no stimulation = 0%; 5 hours culture
T3 construct: host or cells: CHO-K1 (CellSensor TrkB-NFAT-bla CHO-K1)
T3 sequence (Q16620 32-822): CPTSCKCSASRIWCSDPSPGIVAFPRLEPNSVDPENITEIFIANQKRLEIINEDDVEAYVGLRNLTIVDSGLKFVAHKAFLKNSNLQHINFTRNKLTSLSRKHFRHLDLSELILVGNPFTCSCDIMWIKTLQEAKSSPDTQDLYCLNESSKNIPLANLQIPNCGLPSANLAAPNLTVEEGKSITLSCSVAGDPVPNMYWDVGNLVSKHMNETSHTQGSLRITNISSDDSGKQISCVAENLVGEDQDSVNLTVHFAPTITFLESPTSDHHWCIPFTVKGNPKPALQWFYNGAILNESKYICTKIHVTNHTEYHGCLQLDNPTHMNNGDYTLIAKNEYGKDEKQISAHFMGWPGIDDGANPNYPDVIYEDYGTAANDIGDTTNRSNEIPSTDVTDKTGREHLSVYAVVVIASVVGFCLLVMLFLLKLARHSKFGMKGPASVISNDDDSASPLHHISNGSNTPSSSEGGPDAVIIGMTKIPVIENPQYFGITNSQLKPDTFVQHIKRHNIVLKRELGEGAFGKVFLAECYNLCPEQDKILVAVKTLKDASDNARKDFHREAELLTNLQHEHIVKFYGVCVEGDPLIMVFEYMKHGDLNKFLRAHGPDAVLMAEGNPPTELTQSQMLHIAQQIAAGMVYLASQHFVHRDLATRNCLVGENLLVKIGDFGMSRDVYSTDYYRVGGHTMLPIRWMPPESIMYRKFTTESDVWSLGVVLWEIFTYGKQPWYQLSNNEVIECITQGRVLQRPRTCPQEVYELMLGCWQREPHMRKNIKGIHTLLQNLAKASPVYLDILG
Method in brief: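 CHO-K1 TrkB-NFAT-bla cells, 12,500 per well, treated overnight-seeded with peptide or BDNF for 5 h, then CCF4-AM substrate 2 h in the dark; 460/535 nm emission ratio. Activity scaled to maximal BDNF signal (100%) and unstimulated (0%); grades A/B/C mean ≥50% activity at 1, 10 or 100 nM.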

[4] = biological target: T3, TrkB (CellSensor TrkB-NFAT-bla CHO-K1 Cell); test: pERK1/2 AlphaLISA assay (phosphorylation of ERK) for TrkB agonist activity; type: cell-based; conditions: class = peptide concentration giving 50% or more activity; BDNF maximum signal = 100%, no stimulation = 0%; 15 minutes of stimulation
Method in brief: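 TrkB-NFAT-bla CHO-K1 cells were starved 4 h in 0.1% BSA medium and then stimulated 15 min with peptide or BDNF; p-ERK1/2 (Thr202/Tyr204) in the lysate was read by AlphaLISA SureFire. Activity % was scaled to the BDNF maximum (100%) and no stimulation (0%); A = ≥50% at 1 nM, B = ≥50% at 10 nM; curves were 8 points, 4-fold dilutions from 100 nM.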

Compound | binding to TrkA [1] | binding to TrkC [2] | NFAT Assay Results [3] | pERK (aLISA) Assay Results [4]
CC(C)[C@@H]1NC(=O)[C@H](Cc2cccnc2)NC(=O)[C@H](CCC(=O)O)NC(=O)[C@H](CO)NC(=O)[C@H](Cc2ccc(O)cc2)NC(=O)[C@H]([C@@H](C)O)NC(=O)[C@@H]2CCCN2C(=O)[C@H](Cc2c[nH]c3ccccc23)NC(=O)[C@H](Cc2cccnc2)NC(=O)[C@H](Cc2ccc(O)cc2)NC(=O)[C@@H]2CCCN2C(=O)[C@H](CO)NC(=O)[C@H](Cc2ccccc2)NC(=O)CSC[C@@H](C(=O)NCC(=O)N[C@@H](CCCCNC(=O)CCOCCOCCOCCOCCOCCOCCOCCOCCOCCOCCOCCOCCOCCC(=O)NCCCC[C@H](NC(=O)CNC(=O)[C@@H]2CSCC(=O)N[C@@H](Cc3ccccc3)C(=O)N[C@@H](CO)C(=O)N3CCC[C@H]3C(=O)N[C@@H](Cc3ccc(O)cc3)C(=O)N[C@@H](Cc3cccnc3)C(=O)N[C@@H](Cc3c[nH]c4ccccc34)C(=O)N3CCC[C@H]3C(=O)N[C@@H]([C@@H](C)O)C(=O)N[C@@H](Cc3ccc(O)cc3)C(=O)N[C@@H](CO)C(=O)N[C@@H](CCC(=O)O)C(=O)N[C@@H](Cc3cccnc3)C(=O)N[C@@H](C(C)C)C(=O)N[C@@H](CCC(=O)O)C(=O)N2)C(N)=O)C(N)=O)NC(=O)[C@H](CCC(=O)O)NC1=O [compound 48] (I: {CH2CO}-FSPY[3Pal]WPTYSE[3Pal]VECGK-NH2 / II: {CH2CO}-FSPY[3Pal]WPTYSE[3Pal]VECGK-NH2; linker I:17-II:17 via CO(CH2CH2O)13CH2CH2CO; thioether I:N-I:15, II:N-II:15) | no binding | no binding | A (The peptide with 50% or more activity when 1 nM of the peptide was added was evaluated as A) | A (The peptide with 50% or more activity when 1 nM of the peptide was added was evaluated as A)
CC(C)[C@@H]1NC(=O)[C@H](Cc2cccnc2)NC(=O)[C@H](CCC(=O)O)NC(=O)[C@H](CO)NC(=O)[C@H](Cc2ccc(O)cc2)NC(=O)[C@H]([C@@H](C)O)NC(=O)[C@@H]2CCCN2C(=O)[C@H](Cc2c[nH]c3ccccc23)NC(=O)[C@H](Cc2cccnc2)NC(=O)[C@H](Cc2ccc(O)cc2)NC(=O)[C@@H]2CCCN2C(=O)[C@H](CCC(=O)O)NC(=O)[C@H](Cc2ccccc2)NC(=O)CSC[C@@H](C(=O)NCC(=O)N[C@@H](CCCCNC(=O)CCOCCOCCOCCOCCOCCOCCOCCOCCOCCOCCOCCOCCOCCC(=O)NCCCC[C@H](NC(=O)CNC(=O)[C@@H]2CSCC(=O)N[C@@H](Cc3ccccc3)C(=O)N[C@@H](CCC(=O)O)C(=O)N3CCC[C@H]3C(=O)N[C@@H](Cc3ccc(O)cc3)C(=O)N[C@@H](Cc3cccnc3)C(=O)N[C@@H](Cc3c[nH]c4ccccc34)C(=O)N3CCC[C@H]3C(=O)N[C@@H]([C@@H](C)O)C(=O)N[C@@H](Cc3ccc(O)cc3)C(=O)N[C@@H](CO)C(=O)N[C@@H](CCC(=O)O)C(=O)N[C@@H](Cc3cccnc3)C(=O)N[C@@H](C(C)C)C(=O)N[C@@H](CCC(=O)O)C(=O)N2)C(N)=O)C(N)=O)NC(=O)[C@H](CCC(=O)O)NC1=O [compound 56] (I: {CH2CO}-FEPY[3Pal]WPTYSE[3Pal]VECGK-NH2 / II: {CH2CO}-FEPY[3Pal]WPTYSE[3Pal]VECGK-NH2; linker I:17-II:17 via CO(CH2CH2O)13CH2CH2CO; thioether I:N-I:15, II:N-II:15) | no binding | no binding | A (The peptide with 50% or more activity when 1 nM of the peptide was added was evaluated as A) | A (The peptide with 50% or more activity when 1 nM of the peptide was added was evaluated as A)
